The source of these data is patent US10638959B2, “Oral pH and buffering capacity modifiers” (CAO Group, LLC, priority 2010, dated 2020).

Entries after “also recorded” stand apart in the source; their conditions may differ.

The series is described as follows: Immediate release of calcium ion of various salts by a calcium test kit by EM Quant. It is filed as physicochemical. The conditions noted are these: contact with water.

In the case of “Calcium ascorbate [Calcium ascorbate (citrate)]”, the “Immediate release of calcium ion (availability of calcium ion)” value is reported as “most readily available calcium ion source; also recorded: provided calcium ions on contact with water”.
With `CC(O)C(=O)[O-].CC(O)C(=O)[O-].O.O.O.O.O.[Ca+2]` (centres unmarked) [Calcium lactate pentahydrate] the entry was “most readily available calcium ion source”.
